According to US7988972B2, “Immunoreactive peptides from Epstein-Barr virus” (Ortho-Clinical Diagnostics, Inc., priority 1993, dated 2011):

What was measured:
[1] = test system: anti-EA antibodies in human sera; test: ELISA, serological reactivity of human sera with p17 synthetic peptides; format: binding; conditions: for No. Positive/No. Tested / No. Positive/No. Tested (%): sera 1:10
Method: ELISA. The ELISA for measuring specific antibodies to p17, p50 or to the synthetic peptides was performed as previously described in detail (Luka et al., J. Immunol. Methods, 67:145-156, 1984). Aliquots of different antigen concentrations were diluted in 0.5M Na2CO3 buffer, pH 9.5, added to wells in polystyrene microtiter plates (Linbro) and the plates incubated overnight at 4° C. Following this incubation period, the plates were washed 5× with Tris-HCl, pH 7.4, containing 0.05% Tween 20, 50 mM NaCl and 100 mg per liter albumin (Sigma) and dried for 20 minutes at room temperature. The plates were screened with different anti-EA-R or EA-D antibody positive human sera and the monoclonal antibody to p17 or p50 to identify the optimal concentration of antigen to be used in the serological studies. Alkaline-phosphatase-labelled goat anti-human IgG (Sigma) or goat anti-mouse IgG (Sigma) was used as the indicator system.
For the testing of human sera for antibodies to native p17, p50 or to the synthetic peptides, sera were diluted 1:10 in ELISA buffer, added in 0.1 ml volumes to wells coated with optimal concentrations of antigen and the plates were incubated for 60 minutes at room temperature. After 4 washes with ELISA buffer, 100 μl of alkaline phosphatase-labelled goat anti-human IgG in ELISA buffer were added to each well and the plates were incubated at room temperature for 1 hour. Following four more washes in buffer, the enzyme reaction was performed by dissolving 1 mg per ml of Sigma alkaline phosphatase substrate in 1M diethanolamine buffer, pH 10.4, containing 1 mM MgCl2 and 0.1 mM ZnCl2, and 100 μl of the mixture was then added to each well. The reaction was allowed to proceed for 30 minutes at 37° C. and then the plates were screened directly with a microplate reader, TITERTEK MULTISKAN MC (Flow), at 420 nm. Readings above 0.1 which was 2× the background noted with antibody-negative sera were considered positive reactions.
Studies were designed to determine the serological reactivity with the p17 synthetic epitopes. For this purpose, 87 anti-EA antibody-positive sera (titer>160) were tested in the ELISA against optimal pre-determined concentrations (2 μg per well) of the p17 synthetic peptides. The sera were obtained from 28 patients with African Burkift's lymphoma (ABL) collected during the Ghanian Burkitt Tumor Project, and from 28 North American patients with intermediate large cell, or high grade non-Hodgkin's lymphoma (NANHL). The donors included both HIV-positive and HIV-negative individuals. In addition, sera from 31 North American nasopharyngeal carcinoma (NANPC) patients were examined in this study (Pearson, G. R., et al., Cancer, 51:260-268, 1983). To validate the EA specificity of the serological reactions, the results with these sera were compared with results with 23 VCA and EA antibody-negative sera and 30 VCA-antibody-positive, EA-antibody negative sera. In contrast to the T-cell proliferation results, all three synthetic peptides reacted with the EA antibody-positive sera to varying degrees with p17.1 again being the dominant epitope. Approximately 60% of the anti-EA-positive sera reacted with p17.1, 48% with p17.2 and 23% with p17.3.
Seventy-one percent of the sera from ABL patients and 93% of the sera from patients with NANHL reacted with p17.1 as opposed to 23% of the sera from North American patients with NPC.

[2] = test system: peripheral blood lymphocytes (PBL); test: Proliferation assay of peripheral blood lymphocytes (3H-thymidine incorporation); format: cell-based, human; conditions: for 3H-thymidine Incorporation (cpm + S.D.) / S.I. (stimulation index): PBL from anti-VCA-positive, anti-EA-positive donor, 5 days
Method: Proliferation assays. T-cell proliferation assays using the native p17 or p50 polypeptide or the synthetic peptides were performed as previously described in detail (Pothen et al., Int. J. Cancer, 49:656-660, 1991). Briefly, peripheral blood lymphocytes (PBLO from sero-positive donors were isolated on FICOLL-HYPAQUE gradients, washed and resuspended in RPMI 1640 media containing 10% heat-inactivated human A^+ serum from a sero-negative donor. Cells (1×10^5 per 0.1 ml) were then added to each well in 96-well, round-bottomed tissue culture plates (Costar, Cambridge, Mass.). The different antigen preparations were added to triplicate wells in 0.1 ml volumes and the plates were incubated at 37° C. for 5 days. ^3H-thymidine (5 Ci per mM) was added at a concentration of 1 μCi per well over the last 4 hours of culture. The cells were then harvested with a multichannel sample harvester and ^3H-thymidine incorporation was determined using a Beckman Model LS 3801 liquid scintillation counter. Stimulation indices for the test antigens were calculated by dividing the average counts per minute (CPMO for the test antigens by the average CPM of the medium control wells.
PBL from asymptomatic EBV-infected individuals were tested for response to any of the three p17 synthetic peptides (Table 1) by a proliferation assay using lymphocytes previously shown to proliferate in the presence of native p17 (Pothen et al., Int. J. Cancer, 49:656-660, 1991). Different concentrations of the synthetic peptides were incubated with the PBL for 5 days and then proliferation was assayed by the incorporation of ^3H-thymidine. The native p17 purified from activated P3HR-1 cells gave a S.I. of 15.8 in this experiment. […] Neither of the other synthetic peptides induced a proliferation response at the concentrations tested.
PBL from 3 anti-VCA-positive anti-EA-antibody-negative individuals were also examined in the proliferation assay with the three synthetic peptides. Again, all 3 PBL preparations responded to the highest concentrations of p17.1 with S.I.'s ranging from 3.5-11. Two of the preparations (FIG. 2A,C) also proliferated in the presence of lower concentrations of antigen with S.I.'s of 3 and 5 respectively. […] These experiments established that T-lymphocytes from EBV-infected individuals, irrespective of the presence of antibody to EA, recognized a dominant epitope on p17.

[3] = serum donors: Lymphoma (total), EA titers >160
[4] = serum donors: Nasopharyngeal carcinoma (North American), EA titers >160
[5] = serum donors: Non-Hodgkin's lymphoma (North American), EA titers >160
[6] = serum donors: Normal (VCA + EA-)

Q: “ETFTETWNRFITHTE [p17.1, synthetic peptide from 17 Kd early antigen (EA-R) region of EBV]” was tested. Which “share of anti-EA-positive sera that reacted” value ([1]; 87 anti-EA antibody-positive sera (titer>160), 2 μg peptide per well) did it give?
A: Approximately 60%

Q: And the “No. Positive/No. Tested” value ([1]; serum donors: Burkitt's lymphoma (African), EA titers >160)?
A: 20/28

Q: What about the “No. Positive/No. Tested” value [1, 3] of the same sequence?
A: 46/56

Q: What about the “No. Positive/No. Tested (%)” value [1, 3] of the same sequence?
A: 82%

Q: And the “No. Positive/No. Tested” value [1, 4]?
A: 7/31

Q: And the “No. Positive/No. Tested (%)” value [1, 4]?
A: 23%

Q: What about the “No. Positive/No. Tested” value [1, 5] of the same sequence?
A: 26/28

Q: And the “No. Positive/No. Tested (%)” value [1, 5]?
A: 93%

Q: What about the “No. Positive/No. Tested” value [1, 6] of the same sequence?
A: 0/30

Q: And the “No. Positive/No. Tested (%)” value [1, 6]?
A: 0%

Q: What about the “No. Positive/No. Tested” value ([1]; serum donors: Normal (VCA − EA-)) of the same sequence?
A: 0/23

Q: What about the S.I. ([2]; PBL from 3 anti-VCA-positive anti-EA-antibody-negative individuals, highest concentrations) of the same sequence?
A: 3.5-11

Q: And the “3H-thymidine Incorporation (cpm + S.D.)” value ([2]; 3.12 μg/ml)?
A: 263 ± 57 cpm

Q: And the “S.I. (stimulation index)” value ([2]; 3.12 μg/ml)?
A: 1.8

Q: What about the “3H-thymidine Incorporation (cpm + S.D.)” value ([2]; 12.5 μg/ml) of the same sequence?
A: 689 ± 88 cpm

Q: And the “S.I. (stimulation index)” value ([2]; 12.5 μg/ml)?
A: 4.7

Q: What about the “3H-thymidine Incorporation (cpm + S.D.)” value ([2]; 50 μg/ml) of the same sequence?
A: 1584 ± 37 cpm

Q: What about the “S.I. (stimulation index)” value ([2]; 50 μg/ml) of the same sequence?
A: 10.8

Q: And the S.I. ([2]; PBL preparation of FIG. 2A (anti-VCA-positive, anti-EA-negative), lower concentrations of antigen)?
A: 3

Q: What about the S.I. ([2]; PBL preparation of FIG. 2C (anti-VCA-positive, anti-EA-negative), lower concentrations of antigen) of the same sequence?
A: 5

Q: What about the proliferation response ([2]; unfractionated PBL of donors A and B, highest concentrations tested (100 μg per ml donor A, 50 μg per ml donor B)) of the same sequence?
A: proliferated
